Calls of active or inactive are those of the source.
What was measured:
[1] = inhibitors of firefly luciferase expression or activity, dose response, H4 neuroglioma cells, luminescence (AID 1990); type: functional, cell-based
[2] = Luminescence Cell-Based Dose Response HTS to Identify Inhibitors of 5'UTR Stem-Loop Driven Prion Protein mRNA Translation in H4 Neuroglioblastoma Cells. [Related pubchem assays: 1827 (Project Summary), 1813 (Primary HTS)]; type: functional
[3] = inhibitors of SNCA 5'UTR-driven reporter translation, confirmation, H4 neuroglioma cells, luminescence (AID 1988); type: functional, cell-based
Protein Tat = molecular target: T1, Protein Tat (Human immunodeficiency virus type 1 group M subtype B (isolate HXB2)(HIV-1), UniProt P04608); type: functional;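 also: tat binding to TAR RNA read out by fluorescence polarization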
T1 sequence (P04608 whole entry): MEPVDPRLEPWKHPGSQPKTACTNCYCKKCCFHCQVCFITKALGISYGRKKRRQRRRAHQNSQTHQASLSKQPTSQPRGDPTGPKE

Albumin = Albumin (Bos taurus, UniProt P02769); experiment: Counterscreen for inhibitors of T-cell receptor (TCR)-CD3 interaction: Fluorescence-based biochemical high throughput dose response assay to identify inhibitors of T-cell receptor (TCR)-CD3 interaction using a TAMRA-labeled BSA probe.; type: functional
Sequence of Albumin (P02769 whole entry): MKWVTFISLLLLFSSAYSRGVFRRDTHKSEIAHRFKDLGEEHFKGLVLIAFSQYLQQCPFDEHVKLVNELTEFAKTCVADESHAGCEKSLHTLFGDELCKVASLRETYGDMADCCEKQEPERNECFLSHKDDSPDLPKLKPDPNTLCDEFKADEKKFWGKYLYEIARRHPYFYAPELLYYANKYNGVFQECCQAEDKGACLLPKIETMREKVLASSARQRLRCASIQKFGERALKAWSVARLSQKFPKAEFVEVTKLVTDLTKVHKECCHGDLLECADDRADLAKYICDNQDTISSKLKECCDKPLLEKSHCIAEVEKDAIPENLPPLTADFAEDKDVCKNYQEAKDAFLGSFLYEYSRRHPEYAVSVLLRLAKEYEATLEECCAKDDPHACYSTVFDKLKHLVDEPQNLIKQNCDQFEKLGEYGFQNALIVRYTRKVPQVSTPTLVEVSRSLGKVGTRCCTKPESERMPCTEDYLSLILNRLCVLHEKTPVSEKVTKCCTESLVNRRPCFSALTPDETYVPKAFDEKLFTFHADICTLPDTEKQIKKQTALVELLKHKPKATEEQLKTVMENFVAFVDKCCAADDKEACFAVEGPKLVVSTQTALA

[4] = molecular target: NAD-dependent protein deacylase sirtuin-5, mitochondrial (Homo sapiens, UniProt Q9NXA8); experiment: SIRT5 desuccinylase inhibitors, dose response, biochemical, fluorescence imaging, cherry-pick, set 5 (AID 720591);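 also: desuccinylation of succinyl peptide AMC substrate read as fluorescence after trypsin release; potency of inhibitors that lower fluorescence and may act on trypsin instead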
Sequence of NAD-dependent protein deacylase sirtuin-5, mitochondrial (Q9NXA8 whole entry): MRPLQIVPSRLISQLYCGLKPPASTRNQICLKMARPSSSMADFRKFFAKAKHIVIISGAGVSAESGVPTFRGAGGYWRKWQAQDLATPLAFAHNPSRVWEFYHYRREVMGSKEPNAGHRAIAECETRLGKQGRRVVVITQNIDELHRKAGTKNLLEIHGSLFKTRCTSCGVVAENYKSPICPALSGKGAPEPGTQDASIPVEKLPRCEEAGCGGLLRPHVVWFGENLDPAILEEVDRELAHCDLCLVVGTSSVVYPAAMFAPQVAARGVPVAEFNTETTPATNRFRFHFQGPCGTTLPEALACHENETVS

[5] = A549 cell cytotoxicity, dose response, cytotoxicity control, plate reader, cherry-pick, antagonist series (AID 743412); type: functional, cell-based
[6] = HepG2 cell cytotoxicity, dose response, cytotoxicity control, plate reader, cherry-pick, antagonist series (AID 743416); type: functional, cell-based
[7] = LGR2 antagonists, dose response, cell-based, HEK293, CRE-luciferase reporter, cherry pick, set 2 (AID 743343); type: functional;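 also: transfected cells were stimulated with diluted bursicon conditioned medium after compound addition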
[8] = MC4R antagonists, dose response, counter-screen for LGR2 antagonist project, cell-based, plate reader, cherry pick (AID 743444); type: functional;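 also: transfected HEK 293 cells stimulated with alpha-MSH peptide; potency of inhibitors of the alpha-MSH evoked signal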
[9] = molecular target: T2, Replicative DNA helicase DnaB (Mycobacterium tuberculosis, UniProt P9WMR3); experiment: DnaB intein splicing inhibitors, dose response, biochemical, cell-free fluorescence (AID 449749); type: functional
T2 sequence (P9WMR3 whole entry): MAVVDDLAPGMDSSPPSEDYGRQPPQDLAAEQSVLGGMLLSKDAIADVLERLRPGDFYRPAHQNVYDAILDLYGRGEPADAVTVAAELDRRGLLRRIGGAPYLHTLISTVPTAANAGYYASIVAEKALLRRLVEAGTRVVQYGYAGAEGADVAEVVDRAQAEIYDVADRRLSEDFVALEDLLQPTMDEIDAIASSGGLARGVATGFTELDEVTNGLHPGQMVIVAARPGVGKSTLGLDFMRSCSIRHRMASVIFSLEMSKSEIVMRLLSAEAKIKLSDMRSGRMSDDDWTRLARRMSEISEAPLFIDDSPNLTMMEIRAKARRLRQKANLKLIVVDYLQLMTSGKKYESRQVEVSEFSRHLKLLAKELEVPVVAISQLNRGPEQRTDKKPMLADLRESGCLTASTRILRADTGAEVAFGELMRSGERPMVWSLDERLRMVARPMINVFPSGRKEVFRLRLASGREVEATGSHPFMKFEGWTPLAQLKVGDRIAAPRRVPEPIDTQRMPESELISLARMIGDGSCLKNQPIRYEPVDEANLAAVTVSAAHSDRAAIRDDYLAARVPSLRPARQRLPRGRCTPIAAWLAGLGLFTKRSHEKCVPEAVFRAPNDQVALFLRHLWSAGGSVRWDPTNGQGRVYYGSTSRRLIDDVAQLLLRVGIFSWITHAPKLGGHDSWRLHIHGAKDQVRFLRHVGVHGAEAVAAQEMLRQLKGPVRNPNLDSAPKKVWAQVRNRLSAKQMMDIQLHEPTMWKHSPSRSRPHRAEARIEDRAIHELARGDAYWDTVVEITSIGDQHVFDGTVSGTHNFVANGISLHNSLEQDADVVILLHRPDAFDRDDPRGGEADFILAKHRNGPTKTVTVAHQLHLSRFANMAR

Protein RecA = molecular target: T3, Protein RecA (Mycobacterium tuberculosis, UniProt P9WHJ3); experiment: Fluorescence Cell-Free Homogeneous Dose Retest to Identify Inhibitors of RecA-Intein Splicing Activity. [Related pubchem assays (depositor defined):AID2097, AID2223, AID489010, AID492950]; type: functional
T3 sequence (P9WHJ3 whole entry): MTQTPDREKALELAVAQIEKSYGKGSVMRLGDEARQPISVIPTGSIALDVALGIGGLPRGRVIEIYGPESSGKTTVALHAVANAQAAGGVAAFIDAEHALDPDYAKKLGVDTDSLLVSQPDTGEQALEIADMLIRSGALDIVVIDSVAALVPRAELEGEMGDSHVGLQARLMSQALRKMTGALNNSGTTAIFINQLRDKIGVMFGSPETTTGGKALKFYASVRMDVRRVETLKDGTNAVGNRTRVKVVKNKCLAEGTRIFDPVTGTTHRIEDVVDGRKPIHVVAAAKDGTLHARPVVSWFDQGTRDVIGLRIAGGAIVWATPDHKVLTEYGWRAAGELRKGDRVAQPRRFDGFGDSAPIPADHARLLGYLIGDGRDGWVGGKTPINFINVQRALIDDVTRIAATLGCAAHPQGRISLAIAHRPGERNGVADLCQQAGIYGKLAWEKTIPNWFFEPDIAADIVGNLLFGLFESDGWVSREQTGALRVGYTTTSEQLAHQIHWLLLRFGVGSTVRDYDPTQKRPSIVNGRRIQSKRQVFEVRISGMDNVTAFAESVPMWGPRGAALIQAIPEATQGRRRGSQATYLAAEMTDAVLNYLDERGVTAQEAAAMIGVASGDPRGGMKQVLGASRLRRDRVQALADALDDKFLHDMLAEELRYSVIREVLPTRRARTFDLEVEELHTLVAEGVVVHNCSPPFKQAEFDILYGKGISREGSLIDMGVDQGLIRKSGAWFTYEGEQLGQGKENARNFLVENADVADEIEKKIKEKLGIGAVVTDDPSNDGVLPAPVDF

[10] = molecular target: Disintegrin and metalloproteinase domain-containing protein 17 (Homo sapiens, UniProt P78536); experiment: exosite inhibitors of ADAM17, dose response, biochemical (AID 743260)
Sequence of Disintegrin and metalloproteinase domain-containing protein 17 (P78536 whole entry, the tested form may be a part): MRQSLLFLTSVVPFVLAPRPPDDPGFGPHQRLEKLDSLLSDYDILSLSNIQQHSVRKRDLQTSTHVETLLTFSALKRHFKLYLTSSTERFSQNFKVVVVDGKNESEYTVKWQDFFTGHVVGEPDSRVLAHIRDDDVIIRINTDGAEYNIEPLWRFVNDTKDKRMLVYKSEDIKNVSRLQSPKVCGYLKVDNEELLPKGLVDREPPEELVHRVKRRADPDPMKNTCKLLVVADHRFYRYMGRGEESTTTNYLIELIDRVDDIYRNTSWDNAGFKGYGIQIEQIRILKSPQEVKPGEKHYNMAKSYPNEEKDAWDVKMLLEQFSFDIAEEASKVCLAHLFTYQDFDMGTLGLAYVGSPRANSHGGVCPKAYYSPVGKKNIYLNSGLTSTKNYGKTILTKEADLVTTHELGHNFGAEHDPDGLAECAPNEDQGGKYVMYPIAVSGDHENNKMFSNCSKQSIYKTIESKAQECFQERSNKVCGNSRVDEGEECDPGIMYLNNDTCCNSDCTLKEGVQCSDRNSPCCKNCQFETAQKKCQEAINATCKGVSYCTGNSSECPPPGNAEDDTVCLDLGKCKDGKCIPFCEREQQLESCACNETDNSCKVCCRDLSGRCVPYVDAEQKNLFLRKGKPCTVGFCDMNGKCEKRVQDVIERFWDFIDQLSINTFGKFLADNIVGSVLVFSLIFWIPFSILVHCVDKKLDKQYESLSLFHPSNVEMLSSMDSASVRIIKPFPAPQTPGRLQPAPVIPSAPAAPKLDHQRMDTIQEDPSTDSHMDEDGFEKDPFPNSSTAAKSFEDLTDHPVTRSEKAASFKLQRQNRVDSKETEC

Paired box protein Pax-8 = Paired box protein Pax-8 (Homo sapiens, UniProt Q06710); experiment: inhibitors of PAX8-driven TPO luciferase reporter, dose response, RMG-I cells, cherry-pick (AID 687027); type: functional, cell-based;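 also: luciferase reporter driven by Pax8 target thyroperoxidase promoter measured by SteadyGlo luminescence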
Sequence of Paired box protein Pax-8 (Q06710 whole entry): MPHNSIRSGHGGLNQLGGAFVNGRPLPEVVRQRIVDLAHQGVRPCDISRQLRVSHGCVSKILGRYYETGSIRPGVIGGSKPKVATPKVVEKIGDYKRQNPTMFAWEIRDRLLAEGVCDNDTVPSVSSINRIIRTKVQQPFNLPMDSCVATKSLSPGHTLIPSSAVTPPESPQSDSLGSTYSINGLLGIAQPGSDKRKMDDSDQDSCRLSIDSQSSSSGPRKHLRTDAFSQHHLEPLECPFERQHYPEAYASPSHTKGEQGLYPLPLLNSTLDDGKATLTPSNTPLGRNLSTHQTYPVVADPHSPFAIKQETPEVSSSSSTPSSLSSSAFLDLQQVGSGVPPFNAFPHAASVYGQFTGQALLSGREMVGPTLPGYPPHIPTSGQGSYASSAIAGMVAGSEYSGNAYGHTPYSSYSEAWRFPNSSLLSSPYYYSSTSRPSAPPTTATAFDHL

[11] = NIH:OVCAR-3 ovarian cancer cell cytotoxicity, dose response, PAX8 inhibitor project, plate reader, dry powder samples (AID 743044); type: functional, cell-based
[12] = IGROV1 ovarian cancer cell cytotoxicity, dose response, PAX8 inhibitor project, plate reader, dry powder samples (AID 743043); type: functional, cell-based; details: IGROV-1
[13] = cytotoxicity in OVCAR4 cells, dose response, cytotoxicity control for PAX8 inhibitor project, cell-based, plate reader, dry powder, SA11 (AID 743150); type: functional; details: OVCAR-4
[14] = cytotoxicity in OV-90 ovarian cancer cells, dose response, PAX8 inhibitor project, cell-based, plate reader, dry powder, SA8 (AID 743149); type: functional
[15] = cytotoxicity dependent on PAX8, dose response, cell-based, plate reader, dry powder (AID 743049); type: functional
Vero = experiment: cells; type: functional; details: Chlorocebus sabaeus
[16] = molecular target: Luciferin 4-monooxygenase (Photinus pyralis, UniProt P08659); experiment: firefly luciferase enzyme inhibitors, dose response, biochemical, luminescence (AID 1891)
Sequence of Luciferin 4-monooxygenase (P08659 whole entry): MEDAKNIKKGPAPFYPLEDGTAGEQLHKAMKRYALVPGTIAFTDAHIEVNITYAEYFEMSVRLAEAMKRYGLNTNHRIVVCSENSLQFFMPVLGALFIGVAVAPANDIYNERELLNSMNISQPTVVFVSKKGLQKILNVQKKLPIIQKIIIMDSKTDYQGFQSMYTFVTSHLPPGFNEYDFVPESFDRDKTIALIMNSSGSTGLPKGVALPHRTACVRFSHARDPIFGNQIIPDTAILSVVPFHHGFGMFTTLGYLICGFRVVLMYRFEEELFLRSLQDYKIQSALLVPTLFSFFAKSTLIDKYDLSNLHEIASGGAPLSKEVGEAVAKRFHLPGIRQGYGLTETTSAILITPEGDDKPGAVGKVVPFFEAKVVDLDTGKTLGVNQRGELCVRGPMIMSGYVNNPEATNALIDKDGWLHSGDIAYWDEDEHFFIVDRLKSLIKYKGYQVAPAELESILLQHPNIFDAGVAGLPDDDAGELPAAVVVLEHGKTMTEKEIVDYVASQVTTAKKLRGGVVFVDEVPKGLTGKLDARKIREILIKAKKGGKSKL

[17] = Luminescence Cell-Based Dose Confirmation HTS to Identify Inhibitors of Platelet Dense Granule Release. [Related pubchem assays: 1663 (Primary HTS), 1678 (Summary of Project)]; type: functional
[18] = molecular target: Dual specificity tyrosine-phosphorylation-regulated kinase 1A (Rattus norvegicus, UniProt Q63470); type: biochemical, Homo sapiens

In the case of CC(C)C[C@H](NC(=O)c1[nH]cnc1C(=O)N1CCN(c2ccccc2)CC1)C(=O)OC(C)(C)C, the EC50 [1] is reported as 14.5 µM (active), the EC50 [2] is reported as 65.1 µM (active) and the EC50 [3] is reported as 26.5 µM (active). For the same compound, the IC50 (Protein Tat) was > 100 µM (active).

For O=C(CCl)NNC(=O)c1c(O)c2ccccc2[nH]c1=O, the IC50 (Albumin) was > 94 µM (inactive).

With Cc1ccc(Cn2c(N3CCNCC3)nc3c2c(=O)[nH]c(=O)n3C)cc1 the AC50 [4] was 25.2 µM (active).

For COc1ccc2nc(NC(=O)c3ccccc3F)sc2c1, the AC50 [5] was > 52 µM (inactive), the AC50 [6] was > 52 µM (inactive) and the AC50 [7] was 19.9 µM (active). For the same compound, the AC50 [8] was 27.2 µM (active).

With COc1cc(C(c2c(C)[nH][nH]c2=O)c2c(C)[nH][nH]c2=O)ccc1OCc1ccc([N+](=O)[O-])cc1 the AC50 [9] was 0.338 µM (active), the EC50 (Protein RecA) was 0.178 µM (active) and the IC50 [10] was > 69.5 µM (inactive).

With Cc1noc(C)c1COc1ccc(C(=O)NNC(=O)c2ccccc2O)cc1 the IC50 (Albumin) was > 94.1 µM (inactive).

In the case of O=C(CCS(=O)(=O)c1ccccc1)Nc1nc2ccc(F)cc2s1, the AC50 (Paired box protein Pax-8) is reported as 3.55 µM (active), the AC50 [11] is reported as 28 µM (active) and the AC50 [12] is reported as 36.9 µM (active). The AC50 [13] was > 100 µM (inactive), the AC50 [14] was > 100 µM (inactive) and the AC50 [15] was 20.3 µM (active).

For O=C1N(c2ccccc2C(F)(F)F)O[C@@]1(c1ccccc1)C1CCCCC1, the CC50 (Vero) was > 25 µM (active).

With O=C(c1ccccc1)c1ccc2cc(O)ccc2c1 the EC50 [16] was 0.752 µM (active), the EC50 [17] was 7.74 µM (active) and the AC50 [18] was 9.25 µM (active).
